Reference: ChEMBL document CHEMBL1201862, “PubChem BioAssay data set” (2004)
Each block holds one compound with its values, some of them ahead of it. Activity calls are given as the source filed them.

Columns and labels:
Beta-galactosidase = Beta-galactosidase (Escherichia coli, UniProt Q8VNN2); test: PubChem AID 485352; assay type: functional
[1] = target: T1, Type-1 angiotensin II receptor (Homo sapiens, UniProt P30556); test: AT1 receptor antagonists, dose response, selectivity assay for APJ receptor antagonist project, cell-based, uHTS hits (AID 463214); assay type: functional;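 also: antagonist potency against angiotensin II stimulated AT1 response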
T1 sequence (P30556 whole entry): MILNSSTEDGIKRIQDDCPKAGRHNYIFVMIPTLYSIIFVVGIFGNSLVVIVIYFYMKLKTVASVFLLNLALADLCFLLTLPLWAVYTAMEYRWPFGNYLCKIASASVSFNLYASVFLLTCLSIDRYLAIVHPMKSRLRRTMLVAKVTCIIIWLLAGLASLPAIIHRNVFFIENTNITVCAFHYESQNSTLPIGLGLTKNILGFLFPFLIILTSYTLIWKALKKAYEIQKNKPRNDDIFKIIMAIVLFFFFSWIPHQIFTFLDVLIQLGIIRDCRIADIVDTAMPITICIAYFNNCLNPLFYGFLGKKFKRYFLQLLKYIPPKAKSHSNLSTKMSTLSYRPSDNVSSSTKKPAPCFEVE

Caspase-3 = target: T2, Caspase-3 (Homo sapiens, UniProt P42574); assay type: functional;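 also: Dose-response selectivity test against caspase-3 for candidate inhibitors of sentrin-specific proteases (SENPs)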
T2 sequence (P42574 whole entry): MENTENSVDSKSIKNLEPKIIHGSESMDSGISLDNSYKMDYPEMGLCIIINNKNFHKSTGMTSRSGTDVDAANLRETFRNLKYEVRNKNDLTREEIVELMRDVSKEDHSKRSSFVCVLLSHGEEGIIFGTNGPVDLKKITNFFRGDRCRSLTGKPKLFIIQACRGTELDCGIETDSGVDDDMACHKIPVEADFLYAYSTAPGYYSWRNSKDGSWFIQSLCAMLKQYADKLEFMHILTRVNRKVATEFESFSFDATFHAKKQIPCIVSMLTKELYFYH

[2] = target: T3, Sentrin-specific protease 7 (Homo sapiens, UniProt Q9BQF6); assay type: functional;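 also: Luminescence-based dose-response confirmation of ultra-high-throughput screening hits, measuring inhibition of SENP7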
T3 sequence (Q9BQF6 whole entry): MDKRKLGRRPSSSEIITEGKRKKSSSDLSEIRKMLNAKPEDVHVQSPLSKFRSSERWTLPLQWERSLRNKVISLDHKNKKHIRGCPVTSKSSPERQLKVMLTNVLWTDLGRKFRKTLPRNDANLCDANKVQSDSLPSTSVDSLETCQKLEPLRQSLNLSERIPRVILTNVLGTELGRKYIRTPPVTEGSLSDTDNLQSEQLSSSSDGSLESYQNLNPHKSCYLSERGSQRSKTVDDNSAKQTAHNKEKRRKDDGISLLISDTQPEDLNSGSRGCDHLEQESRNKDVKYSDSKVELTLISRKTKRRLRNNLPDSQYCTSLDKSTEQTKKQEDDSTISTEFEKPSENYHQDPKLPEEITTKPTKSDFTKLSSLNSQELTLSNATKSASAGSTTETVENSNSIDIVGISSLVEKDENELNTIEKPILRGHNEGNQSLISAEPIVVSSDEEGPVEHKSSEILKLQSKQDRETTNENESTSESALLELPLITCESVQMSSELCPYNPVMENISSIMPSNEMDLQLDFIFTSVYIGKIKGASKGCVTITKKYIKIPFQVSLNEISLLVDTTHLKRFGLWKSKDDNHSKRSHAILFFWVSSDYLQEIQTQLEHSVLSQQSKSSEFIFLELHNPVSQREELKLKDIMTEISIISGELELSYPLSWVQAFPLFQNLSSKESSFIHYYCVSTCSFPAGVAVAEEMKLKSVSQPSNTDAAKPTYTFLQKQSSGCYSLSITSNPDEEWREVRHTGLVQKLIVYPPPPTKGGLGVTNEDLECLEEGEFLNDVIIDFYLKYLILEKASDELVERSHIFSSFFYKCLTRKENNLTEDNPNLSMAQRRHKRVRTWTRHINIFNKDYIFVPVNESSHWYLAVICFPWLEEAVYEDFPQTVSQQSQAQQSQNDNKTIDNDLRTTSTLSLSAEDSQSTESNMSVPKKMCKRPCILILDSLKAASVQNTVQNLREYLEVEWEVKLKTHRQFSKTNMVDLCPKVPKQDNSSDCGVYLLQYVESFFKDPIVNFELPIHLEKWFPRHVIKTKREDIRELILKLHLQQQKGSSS

[3] = target: T4, Sentrin-specific protease 6 (Homo sapiens, UniProt Q9GZR1); assay type: functional;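 also: Luminescence-based dose-response confirmatory assay of SENP6 inhibition, following up an ultra-high-throughput screen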
T4 sequence (Q9GZR1 whole entry): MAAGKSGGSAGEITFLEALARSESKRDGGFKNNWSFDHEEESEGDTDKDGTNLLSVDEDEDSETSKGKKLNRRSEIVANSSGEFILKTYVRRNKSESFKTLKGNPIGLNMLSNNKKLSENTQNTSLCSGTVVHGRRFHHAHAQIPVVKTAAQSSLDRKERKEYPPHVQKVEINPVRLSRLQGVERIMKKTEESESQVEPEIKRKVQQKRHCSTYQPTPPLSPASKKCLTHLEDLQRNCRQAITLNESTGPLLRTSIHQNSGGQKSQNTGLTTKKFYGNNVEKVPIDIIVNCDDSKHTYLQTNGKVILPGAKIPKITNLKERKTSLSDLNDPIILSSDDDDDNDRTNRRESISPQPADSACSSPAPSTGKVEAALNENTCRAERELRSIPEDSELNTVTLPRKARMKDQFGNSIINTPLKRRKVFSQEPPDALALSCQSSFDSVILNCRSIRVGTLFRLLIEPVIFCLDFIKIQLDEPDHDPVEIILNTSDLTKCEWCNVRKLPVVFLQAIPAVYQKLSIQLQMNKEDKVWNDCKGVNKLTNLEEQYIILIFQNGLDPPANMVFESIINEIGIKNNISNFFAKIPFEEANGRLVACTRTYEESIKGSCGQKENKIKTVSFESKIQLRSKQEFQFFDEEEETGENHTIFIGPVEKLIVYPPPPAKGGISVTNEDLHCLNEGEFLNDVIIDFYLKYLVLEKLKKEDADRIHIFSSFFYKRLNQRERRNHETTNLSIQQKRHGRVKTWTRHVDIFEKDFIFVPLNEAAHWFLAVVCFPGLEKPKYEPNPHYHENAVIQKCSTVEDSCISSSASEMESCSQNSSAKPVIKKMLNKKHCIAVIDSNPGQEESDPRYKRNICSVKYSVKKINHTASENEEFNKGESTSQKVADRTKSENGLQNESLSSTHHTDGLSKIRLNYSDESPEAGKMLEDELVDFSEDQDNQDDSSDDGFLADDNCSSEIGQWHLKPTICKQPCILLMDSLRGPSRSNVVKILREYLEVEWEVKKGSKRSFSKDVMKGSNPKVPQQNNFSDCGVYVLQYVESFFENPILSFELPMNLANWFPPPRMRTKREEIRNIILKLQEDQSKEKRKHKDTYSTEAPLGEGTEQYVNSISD

[4] = target: T5, Sentrin-specific protease 8 (Homo sapiens, UniProt Q96LD8); assay type: functional;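 also: luminescence read-out of SENP8 inhibition, dose-response confirmation following an ultra-high-throughput screen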
T5 sequence (Q96LD8 whole entry): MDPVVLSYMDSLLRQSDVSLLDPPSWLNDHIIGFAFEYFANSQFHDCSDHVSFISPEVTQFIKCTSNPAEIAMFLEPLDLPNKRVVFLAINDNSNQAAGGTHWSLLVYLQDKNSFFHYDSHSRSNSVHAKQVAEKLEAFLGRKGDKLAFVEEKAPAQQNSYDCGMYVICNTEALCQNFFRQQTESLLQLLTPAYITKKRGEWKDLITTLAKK

Cytochrome P450 1A2 = target: T6, Cytochrome P450 1A2 (Homo sapiens, UniProt P05177);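 also: PubChem cytochrome P450 panel assay, CYP1A2 panel member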
T6 sequence (P05177 whole entry): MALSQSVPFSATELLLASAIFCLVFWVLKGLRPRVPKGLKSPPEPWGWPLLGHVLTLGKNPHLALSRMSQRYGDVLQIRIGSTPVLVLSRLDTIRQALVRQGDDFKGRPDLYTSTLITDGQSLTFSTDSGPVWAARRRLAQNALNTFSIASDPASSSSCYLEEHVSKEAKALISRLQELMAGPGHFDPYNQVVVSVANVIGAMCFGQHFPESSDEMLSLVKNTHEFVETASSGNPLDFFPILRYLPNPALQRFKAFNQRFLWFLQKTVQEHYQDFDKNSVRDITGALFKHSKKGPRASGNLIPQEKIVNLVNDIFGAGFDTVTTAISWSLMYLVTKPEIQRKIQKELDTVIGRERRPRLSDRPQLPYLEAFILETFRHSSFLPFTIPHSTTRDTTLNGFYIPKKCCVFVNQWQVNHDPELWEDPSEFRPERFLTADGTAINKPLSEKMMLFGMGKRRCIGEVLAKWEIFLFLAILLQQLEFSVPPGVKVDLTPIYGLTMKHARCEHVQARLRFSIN

Cytochrome P450 2C9 = Cytochrome P450 2C9 (Homo sapiens, UniProt P11712)
[5] = target: DNA dC->dU-editing enzyme APOBEC-3A (Homo sapiens, UniProt P31941); test: Dose Response confirmation of small molecule APOBEC3A DNA Deaminase Inhibitors via a fluorescence-based single-stranded DNA deaminase assay. [Related pubchem assays (depositor defined):AID493011, AID493024]; assay type: functional
[6] = target: DNA dC->dU-editing enzyme APOBEC-3G (Homo sapiens, UniProt Q9HC16); assay type: functional;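 also: Dose-response counterscreen measuring inhibition of APOBEC3G DNA deaminase activity, run while confirming APOBEC3A inhibitors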
[7] = target: T7, Carboxy-terminal domain RNA polymerase II polypeptide A small phosphatase 1 (Homo sapiens, UniProt Q9GZU7); test: inhibitors of CTDSP1, concentration-response testing, biochemical assay, absorbance-based, actives from ultra-high-throughput screening (AID 540297); assay type: functional
T7 sequence (Q9GZU7 whole entry): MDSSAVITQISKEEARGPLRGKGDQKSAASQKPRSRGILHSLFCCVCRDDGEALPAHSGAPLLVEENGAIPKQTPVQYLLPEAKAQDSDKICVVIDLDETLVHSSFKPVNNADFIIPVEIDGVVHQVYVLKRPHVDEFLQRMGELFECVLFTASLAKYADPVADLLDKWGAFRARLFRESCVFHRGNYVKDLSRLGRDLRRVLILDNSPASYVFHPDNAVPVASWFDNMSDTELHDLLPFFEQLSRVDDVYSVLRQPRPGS

[8] = target: Voltage-dependent T-type calcium channel subunit alpha-1H (Homo sapiens, UniProt O95180); assay type: functional;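 also: channel activity triggered by adding a high calcium stimulation buffer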
[9] = target: T8, Apoptotic protease-activating factor 1 (Homo sapiens, UniProt O14727); assay type: functional
T8 sequence (O14727 whole entry): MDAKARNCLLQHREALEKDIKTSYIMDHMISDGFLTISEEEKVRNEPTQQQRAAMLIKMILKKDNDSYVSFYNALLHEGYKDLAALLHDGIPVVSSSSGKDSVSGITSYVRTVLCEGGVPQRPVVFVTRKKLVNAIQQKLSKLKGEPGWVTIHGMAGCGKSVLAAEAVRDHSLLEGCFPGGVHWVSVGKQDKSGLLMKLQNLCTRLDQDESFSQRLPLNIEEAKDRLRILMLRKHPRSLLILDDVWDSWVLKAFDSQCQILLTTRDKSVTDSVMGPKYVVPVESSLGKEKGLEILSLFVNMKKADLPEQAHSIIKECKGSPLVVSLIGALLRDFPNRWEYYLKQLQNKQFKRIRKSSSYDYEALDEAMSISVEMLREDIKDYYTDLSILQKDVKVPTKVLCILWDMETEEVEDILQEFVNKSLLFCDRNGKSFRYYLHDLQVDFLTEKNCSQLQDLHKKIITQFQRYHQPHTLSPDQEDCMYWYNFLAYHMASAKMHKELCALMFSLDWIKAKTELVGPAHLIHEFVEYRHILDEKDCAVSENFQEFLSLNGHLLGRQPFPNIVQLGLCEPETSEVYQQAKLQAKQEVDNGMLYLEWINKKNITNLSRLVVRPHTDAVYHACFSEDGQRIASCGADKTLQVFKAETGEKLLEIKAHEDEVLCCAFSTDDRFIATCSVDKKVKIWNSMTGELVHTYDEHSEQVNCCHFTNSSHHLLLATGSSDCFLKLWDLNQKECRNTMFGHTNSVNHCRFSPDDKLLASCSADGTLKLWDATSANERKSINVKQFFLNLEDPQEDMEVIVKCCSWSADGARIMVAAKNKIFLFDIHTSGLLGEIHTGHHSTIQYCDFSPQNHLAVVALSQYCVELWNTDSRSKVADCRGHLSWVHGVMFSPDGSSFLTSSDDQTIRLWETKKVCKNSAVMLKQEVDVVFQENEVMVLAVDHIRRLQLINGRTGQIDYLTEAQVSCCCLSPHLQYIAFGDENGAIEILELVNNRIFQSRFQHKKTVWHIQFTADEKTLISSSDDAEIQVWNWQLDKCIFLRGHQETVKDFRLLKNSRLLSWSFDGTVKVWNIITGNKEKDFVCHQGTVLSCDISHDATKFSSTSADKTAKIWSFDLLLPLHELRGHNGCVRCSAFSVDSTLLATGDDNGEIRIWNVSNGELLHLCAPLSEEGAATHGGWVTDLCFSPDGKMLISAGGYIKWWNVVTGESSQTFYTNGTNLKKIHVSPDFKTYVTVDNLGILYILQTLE

Sequence of Beta-galactosidase (Q8VNN2 whole entry): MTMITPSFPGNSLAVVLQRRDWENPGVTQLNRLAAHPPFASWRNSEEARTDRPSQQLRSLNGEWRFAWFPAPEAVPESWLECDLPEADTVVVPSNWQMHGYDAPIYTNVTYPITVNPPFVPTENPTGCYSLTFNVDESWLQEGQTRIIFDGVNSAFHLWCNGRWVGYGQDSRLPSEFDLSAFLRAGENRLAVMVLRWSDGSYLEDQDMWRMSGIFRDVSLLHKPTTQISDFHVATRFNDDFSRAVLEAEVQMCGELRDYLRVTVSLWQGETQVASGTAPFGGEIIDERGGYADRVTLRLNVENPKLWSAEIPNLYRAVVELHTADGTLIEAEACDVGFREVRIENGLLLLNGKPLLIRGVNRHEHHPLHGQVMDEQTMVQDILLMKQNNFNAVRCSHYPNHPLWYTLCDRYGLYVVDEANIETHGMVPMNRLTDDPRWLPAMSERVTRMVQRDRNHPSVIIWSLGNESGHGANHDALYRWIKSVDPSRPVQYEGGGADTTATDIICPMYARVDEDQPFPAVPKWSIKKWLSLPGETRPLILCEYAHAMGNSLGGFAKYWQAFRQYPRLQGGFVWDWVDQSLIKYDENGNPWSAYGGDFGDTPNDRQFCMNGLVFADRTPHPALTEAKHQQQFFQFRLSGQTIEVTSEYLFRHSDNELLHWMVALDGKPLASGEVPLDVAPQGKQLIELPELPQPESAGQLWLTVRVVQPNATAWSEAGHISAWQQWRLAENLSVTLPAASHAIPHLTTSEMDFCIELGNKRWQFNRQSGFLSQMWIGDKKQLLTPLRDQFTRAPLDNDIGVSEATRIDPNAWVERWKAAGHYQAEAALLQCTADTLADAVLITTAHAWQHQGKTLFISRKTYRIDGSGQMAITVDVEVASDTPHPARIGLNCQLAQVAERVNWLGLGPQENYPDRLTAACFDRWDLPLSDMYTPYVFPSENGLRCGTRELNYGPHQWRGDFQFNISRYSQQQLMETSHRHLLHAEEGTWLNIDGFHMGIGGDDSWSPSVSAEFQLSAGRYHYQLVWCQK
Sequence of Cytochrome P450 2C9 (P11712 whole entry): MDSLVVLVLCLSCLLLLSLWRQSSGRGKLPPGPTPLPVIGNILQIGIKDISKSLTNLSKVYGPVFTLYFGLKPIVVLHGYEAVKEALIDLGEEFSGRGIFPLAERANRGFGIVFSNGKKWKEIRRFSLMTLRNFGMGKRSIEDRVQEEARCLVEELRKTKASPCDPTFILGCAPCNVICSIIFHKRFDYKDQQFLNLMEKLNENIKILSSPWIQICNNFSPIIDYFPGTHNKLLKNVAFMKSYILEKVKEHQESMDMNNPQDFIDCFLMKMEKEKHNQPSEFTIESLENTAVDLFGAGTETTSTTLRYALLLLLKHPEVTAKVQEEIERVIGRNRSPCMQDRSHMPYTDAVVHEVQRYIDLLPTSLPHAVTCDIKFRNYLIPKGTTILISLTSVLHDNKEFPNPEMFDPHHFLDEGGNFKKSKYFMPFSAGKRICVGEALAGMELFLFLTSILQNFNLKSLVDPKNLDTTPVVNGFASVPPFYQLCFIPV
Sequence of DNA dC->dU-editing enzyme APOBEC-3A (P31941 whole entry): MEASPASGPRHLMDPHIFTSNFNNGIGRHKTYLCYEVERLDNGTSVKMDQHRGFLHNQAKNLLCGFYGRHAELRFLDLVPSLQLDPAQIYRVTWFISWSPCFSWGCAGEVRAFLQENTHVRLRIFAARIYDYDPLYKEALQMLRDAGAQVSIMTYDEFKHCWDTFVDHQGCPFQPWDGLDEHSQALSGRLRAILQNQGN
Sequence of Voltage-dependent T-type calcium channel subunit alpha-1H (O95180 whole entry): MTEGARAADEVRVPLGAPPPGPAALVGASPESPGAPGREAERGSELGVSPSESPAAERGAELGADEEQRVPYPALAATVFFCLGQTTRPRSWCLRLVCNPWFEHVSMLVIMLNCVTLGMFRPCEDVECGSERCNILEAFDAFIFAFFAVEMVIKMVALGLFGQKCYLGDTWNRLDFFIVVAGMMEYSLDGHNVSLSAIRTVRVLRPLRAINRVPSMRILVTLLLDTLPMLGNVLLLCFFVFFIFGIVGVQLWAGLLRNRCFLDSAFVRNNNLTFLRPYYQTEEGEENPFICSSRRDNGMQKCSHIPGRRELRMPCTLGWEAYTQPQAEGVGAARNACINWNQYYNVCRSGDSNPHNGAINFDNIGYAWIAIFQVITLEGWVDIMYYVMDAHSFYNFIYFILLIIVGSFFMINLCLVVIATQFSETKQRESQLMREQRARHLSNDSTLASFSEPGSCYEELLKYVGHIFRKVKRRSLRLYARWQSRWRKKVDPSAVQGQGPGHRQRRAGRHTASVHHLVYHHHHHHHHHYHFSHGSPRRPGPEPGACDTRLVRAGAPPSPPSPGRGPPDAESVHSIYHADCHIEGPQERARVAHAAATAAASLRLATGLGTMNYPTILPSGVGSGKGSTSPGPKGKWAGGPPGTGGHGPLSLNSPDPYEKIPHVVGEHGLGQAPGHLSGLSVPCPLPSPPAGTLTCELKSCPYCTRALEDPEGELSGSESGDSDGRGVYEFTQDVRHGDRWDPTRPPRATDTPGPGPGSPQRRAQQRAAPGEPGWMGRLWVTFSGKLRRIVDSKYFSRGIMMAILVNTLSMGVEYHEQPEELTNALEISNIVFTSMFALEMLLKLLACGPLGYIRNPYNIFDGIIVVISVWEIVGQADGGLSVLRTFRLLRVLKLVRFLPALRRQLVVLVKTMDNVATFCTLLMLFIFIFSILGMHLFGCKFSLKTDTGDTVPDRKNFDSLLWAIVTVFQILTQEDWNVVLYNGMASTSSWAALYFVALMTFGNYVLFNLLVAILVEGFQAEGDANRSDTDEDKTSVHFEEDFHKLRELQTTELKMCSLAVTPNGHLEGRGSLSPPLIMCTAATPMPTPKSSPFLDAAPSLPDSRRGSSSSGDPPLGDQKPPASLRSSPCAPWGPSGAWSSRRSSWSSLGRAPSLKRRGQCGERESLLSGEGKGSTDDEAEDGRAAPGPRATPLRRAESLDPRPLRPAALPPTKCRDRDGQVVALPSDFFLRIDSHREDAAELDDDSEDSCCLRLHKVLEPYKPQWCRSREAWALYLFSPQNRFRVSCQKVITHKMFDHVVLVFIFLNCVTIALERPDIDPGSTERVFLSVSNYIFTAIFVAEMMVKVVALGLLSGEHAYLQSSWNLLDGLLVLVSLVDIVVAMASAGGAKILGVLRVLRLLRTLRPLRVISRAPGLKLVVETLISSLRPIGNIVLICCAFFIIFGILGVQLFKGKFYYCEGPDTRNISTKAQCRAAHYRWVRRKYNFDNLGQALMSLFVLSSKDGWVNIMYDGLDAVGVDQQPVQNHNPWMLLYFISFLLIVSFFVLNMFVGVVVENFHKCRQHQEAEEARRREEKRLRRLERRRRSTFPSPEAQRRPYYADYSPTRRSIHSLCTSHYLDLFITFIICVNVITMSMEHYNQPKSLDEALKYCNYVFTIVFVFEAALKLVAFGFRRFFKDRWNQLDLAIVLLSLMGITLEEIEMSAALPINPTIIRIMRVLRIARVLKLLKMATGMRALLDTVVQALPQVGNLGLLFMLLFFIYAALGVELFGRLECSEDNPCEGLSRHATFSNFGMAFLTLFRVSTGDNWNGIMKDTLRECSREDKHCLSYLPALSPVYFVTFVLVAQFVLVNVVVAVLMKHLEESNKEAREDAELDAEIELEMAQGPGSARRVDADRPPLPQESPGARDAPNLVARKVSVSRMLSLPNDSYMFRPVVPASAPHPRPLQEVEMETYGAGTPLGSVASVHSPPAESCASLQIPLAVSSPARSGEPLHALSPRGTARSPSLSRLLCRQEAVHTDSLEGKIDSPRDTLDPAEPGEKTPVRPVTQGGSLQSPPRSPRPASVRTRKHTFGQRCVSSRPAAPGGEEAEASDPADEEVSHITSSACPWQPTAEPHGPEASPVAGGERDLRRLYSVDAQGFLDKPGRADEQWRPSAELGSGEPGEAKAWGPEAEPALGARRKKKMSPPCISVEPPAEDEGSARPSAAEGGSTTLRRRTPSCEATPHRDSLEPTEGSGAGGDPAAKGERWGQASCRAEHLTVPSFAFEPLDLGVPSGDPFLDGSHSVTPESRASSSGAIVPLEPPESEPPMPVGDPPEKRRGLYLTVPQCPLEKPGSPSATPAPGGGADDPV
Sequence of DNA dC->dU-editing enzyme APOBEC-3G (Q9HC16 whole entry, the tested form may be a part): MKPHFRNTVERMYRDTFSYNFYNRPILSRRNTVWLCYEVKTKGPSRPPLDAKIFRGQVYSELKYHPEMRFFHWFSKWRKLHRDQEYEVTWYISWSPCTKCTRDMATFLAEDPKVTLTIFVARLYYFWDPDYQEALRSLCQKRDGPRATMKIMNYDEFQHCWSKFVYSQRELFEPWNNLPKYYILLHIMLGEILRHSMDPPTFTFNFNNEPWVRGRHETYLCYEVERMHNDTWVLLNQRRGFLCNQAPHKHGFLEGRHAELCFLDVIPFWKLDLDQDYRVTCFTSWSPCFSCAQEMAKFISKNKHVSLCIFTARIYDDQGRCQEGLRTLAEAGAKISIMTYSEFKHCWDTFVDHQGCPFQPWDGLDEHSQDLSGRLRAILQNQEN

Structure (SMILES): Cc1cccc(NC2=c3cccc(Cl)c3=NC2=O)c1
- EC50 (Beta-galactosidase): > 40 µM (inactive)
- IC50 [1]: > 40 µM (not active)

Structure (SMILES): Nn1c(SCc2ccccc2)nc2c(cnn2-c2ccccc2)c1=O
- IC50 (Caspase-3): 36.1 µM (active)
- IC50 [2]: 11.4 µM (active)
- IC50 [3]: > 100 µM (inactive)
- IC50 [4]: > 100 µM (inactive)

Structure (SMILES): C[N+]1(C2CCC3CCCC2C3O)CCCCC1 (centres undefined)
- IC50 [5]: 2.42 µM (active)
- IC50 [6]: 2.69 µM (active)
- IC50 [7]: 6.61 µM (active)

Structure (SMILES): CCN(CC)c1ccc(/C=C/c2nc3ccccc3s2)cc1
- EC50 [8]: 6.85 µM (active)
- AC50 (Cytochrome P450 2C9): inconclusive

Structure (SMILES): O=C1NNC(c2ccccc2)=N/C1=C\c1ccc(Cl)cc1
- IC50 [9]: 22.9 µM (active)

Second part, led by results:

- IC50 (Caspase-3): 21.1 µM (active)
- IC50 [2]: 6.95 µM (active)
- IC50 [3]: 21.1 µM (active)
Structure (SMILES): O=C(Cn1cc(SCc2ccc(F)cc2)c2ccccc21)N1CCOCC1
- IC50 [4]: 23.2 µM (active)

- AC50 (Cytochrome P450 1A2): 7.08 µM (inconclusive)
- AC50 (Cytochrome P450 2C9): inconclusive
Structure (SMILES): Cc1cc(C)cc(-n2nnnc2SCC(=O)Nc2nc(-c3ccc(Cl)cc3)cs2)c1

- EC50 (Beta-galactosidase): > 40 µM (inactive)
- IC50 [1]: 13.7 µM (active)
Structure (SMILES): Nc1c(N2CCCC2)c2ccccc2oc1=O

- EC50 (Beta-galactosidase): > 40 µM (inactive)
- IC50 [1]: 13.2 µM (active)
Structure (SMILES): Cc1ccc2nc(C)cc(C(=O)OCC(=O)c3ccc(Cl)c([N+](=O)[O-])c3)c2c1

- AC50 (Cytochrome P450 1A2): 25.1 µM (inconclusive)
- AC50 (Cytochrome P450 2C9): inconclusive
Structure (SMILES): O=C(CO)N/N=C/c1ccccc1F
